Reference: US6586188B1, “Method for identification of compounds that bind to β-tubulin and stimulate insulin secretion” (Biovitrum AB, priority 1999, dated 2003)

Legend:
β-cells [1] = experiment: Dynamics of insulin release from column perifused β-cells; format: cell-based, ob/ob mice; conditions: for basal level of insulin secretion: 5 μM nocodazole (30 min) or 25 μM Taxol (15 min and throughout); for increase in insulin secretion: 1 μM glibenclamide in the presence of 5 μM nocodazole
Protocol: (§1) Staining of microtubules with an antibody against tubulin in β-cells pretreated with vehicle, nocodazole or taxol (a). Data are representative of three determinations. Effect of nocodazole (b) and taxol (c) on the dynamics of insulin release from column perifused β-cells. Cells were incubated with 5 μM nocodazole for 30 min or 25 μM taxol for 15 min prior to starting perifusion of the cells. Taxol was present during the whole experiment. The control cells were incubated with their respective vehicle solutions. Protocols were initiated at the times indicated in the figure with either 1 μM glibenclamide or 15 mM glucose. The data represents the mean+SEM of four experiments.
(§2) Ob/ob mice were obtained from a locally bread colony at the animal facility within the Karolinska Institute, Stockholm, Sweden. The ob/ob mice were starved overnight. The animals were decapitated, the pancreas was excised from the abdominal cavity and pancreatic β-cells were isolated after collagenase digestion as previously described (Lemmark, A, (1974) Diabetologica 10, 431-438; Nilsson, T. et al. (1987) Biochem. J. 248, 329-336). The cells were kept overnight in RPMI 1640 medium supplemented with 11 mM glucose, 10% FCS, 100 μg/ml streptomycin and 100 IU/ml penicillin at 37° C. in a humidified atmosphere of 5% CO2 in air.
The basal medium used for isolation and for conducting the experiments was a buffer containing 125 mM NaCl; 5.9 mM KCl; 1.3 mM CaCl2; 1.2 mM MgCl2; and 25 mM HEPES (pH 7.4). BSA was added to the medium at the concentration of 1 mg/ml. The dynamics of insulin release were studied by perifusing β-cell aggregates mixed with Bio-Gel P4 polyacrylamide beads (BioRad, Richmond, Calif.), in a 0.5 ml column at 37° C. (Kanatsuna, T. et al. (1981) Diabetes 30, 231-234). The flow rate was 0.2 ml/min. Two-min fractions were collected and insulin content was analyzed by radioimmunoassay.
(§3) Cells were incubated with 5 μM nocodazole for 30 min or 25 μM taxol for 15 min prior to starting perifusion of the cells. Taxol was present during the whole experiment. The control cells were incubated with their respective vehicle solutions. Protocols were initiated at the times indicated in FIG. 3 with either 1 μM glibenclamide or 15 mM glucose. The data represent the mean±SEM of four experiments.

[2] = system: isolated rat islets of Langerhans; conditions: cited from earlier work
β-cells [3] = experiment: Staining of microtubules with an antibody against tubulin in pretreated β-cells; format: cell-based, ob/ob mice; conditions: 5 μM nocodazole or 25 μM Taxol
Protocol: as §1, §3

[4] = system: Tubulin from bovine brain; experiment: Tubulin polymerization in vitro (optical density at 340 nm); format: biochemical; conditions: 0.17 mM glibenclamide, 2.9 mg/ml tubulin, versus DMSO control
Protocol: Glibenclamide accelerates microtubule growth. (a): Experimental data showing the increase in optical density at 340 nm, resulting from tubulin polymerization in vitro, as a function of time. Microtubule growth was induced by increasing the temperature from 15° C. (at t=0) to 35° C. The concentration of bovine brain tubulin was 2.9 mg/ml and the buffer solution contain 80 mM Pipes, 1 mM MgCl2, 1 mM EGTA, 1 mM GTP, 2.1% DMSO and 10% glycerol at pH 6.9. The black symbols indicate the presence of 0.17 mM glibenclamide whereas the gray symbols represent the controls in its absence. The polymerization was followed simultaneously for one pair at the time, with each pair being a glibenclamide sample and a control, to ensure comparisons are made on identical protein samples. The data presented is representative of four experiments. (b): The rate of tubulin polymerization as measured by the change in OD with time (dOD/dt) as a function of time. The experimental conditions were the same as in (a). Black lines indicate the presence of glibenclamide and gray lines its absence. […]
Tubulin from bovine brain was purchased from Cytoskeleton Inc. in aliquots of 1 mg lyophilized protein. […] The experiment was then started by altering the multicell holder set temperature to 35° C. and the absorbance at 340 nm was measured as a function of time. […]

pancreatic β-cells = experiment: Binding of [125I]glibenclamide to intact β-cells and subcellular fractions, UV cross-linking, SDS-PAGE, autoradiography; set-up: species or system ob/ob mice
Excerpt: as §2
Binding of [^125I]glibenclamide (Amersham, UK) was performed in intact β-cells and in subcellular fraction derived therefrom. Isolated pancreatic islets from ob/ob mice (250-300) were homogenized in 300 μl buffer containing (in mM): HEPES 20, MgCl2 1, EGTA 1, EDTA 1, PMSF 1, protease inhibitors (leupeptin, aprotinin, pepstatin, antipain) 0.5 μg/ml in Eppendorf tubes using a motor pestle homogenizer. The homogenized material was centrifuged (800×g for 10 min) and the resultant pellet was resuspended again in 200 μl of homogenization buffer and centrifuged as above. […] This material was further analyzed by SDS-PAGE separation and autoradiography (FIG. 1b). […]

β-tubulin = experiment: Confocal microscopy co-localization of BODIPY FL glibenclamide and anti β-tubulin antibody in β-cells; format: cell-based, ob/ob mice; conditions: primary cultures of β-cells, BODIPY FL glibenclamide staining
Protocol: Further analysis of sulfonylureas binding to β-tubulin was performed using confocal microscopy in primary cultures of β-cells obtained from ob/ob mice. Isolated β-cells in culture were incubated in the presence or absence of different agonists for 3 min at 23° C. The incubation time was terminated by fixation of the cells with 4% formaldehyde in PBS for 10 min at room temperature. After rinsing twice with PBS, cells were incubated in acetone at −20° C. for 5 min and then quenched with PBS containing 1% BSA for 30 min. BODIPY® FL glibenclamide was purchased from Molecular Probes, Inc., Catalog Number B-7439; http://www.probes.com). The green-fluorescent BODIPY® FL fluorophore has excitation/emission maxima ˜503/512 nm. Staining with BODIPY® FL glibenclamide, primary anti β-tubulin antibody (Amersham, UK) and secondary Texas Red®-conjugated antibody (Molecular Probes Inc.) was performed at room temperature for 1 h. After rinsing with PBS the coverslips were mounted (SlowFade light, Molecular Probes, Eugene, Oreg.) and examined using a confocal laser scanning microscope (Leica TCS NT, Leica Lasertechnik GmbH, Heidelberg, Germany). Excitation wavelengths 488 nm and 568 nm were used. The confocal microscope was equipped with an Ar/Kr laser, a double dicroic mirror for rhodamine/fluorescein and a 63× lens (Leica PL APO 63×/1.32×0.6 oil). […]

Row | SMILES | basal level of insulin secretion (β-cells [1]) | effect on increase in insulin secretion elicited by 1 μM glibenclamide (β-cells [1]; 25 μM Taxol, 3 mM and 15 mM glucose) | effect on glucose-stimulated insulin secretion [2] | changes in microtubule organization (β-cells [3]) | rate of change in absorbance (rate of tubulin polymerization) ([4]; 15° C. to 35° C.) | extent of tubulin polymerization [4] | proteins associated with binding, cytosolic fraction (pancreatic β-cells) | co-localization with β-tubulin (β-tubulin) | increase in insulin secretion (β-cells [1]; 3 mM glucose) [fold] | increase in insulin secretion (β-cells [1]; 15 mM glucose)
1 | CC(=O)O[C@H]1C(=O)[C@@]2(C)[C@H]([C@H](OC(=O)c3ccccc3)[C@]3(O)C[C@H](OC(=O)[C@H](O)[C@@H](NC(=O)c4ccccc4)c4ccccc4)C(C)=C1C3(C)C)[C@]1(OC(C)=O)CO[C@@H]1C[C@@H]2O [Taxol] | did not affect | prevented the increase | inhibit | nor did they induce visible changes | – | – | – | – | – | –
2 | COc1ccc(Cl)cc1C(=O)NCCc1ccc(S(=O)(=O)NC(=O)NC2CCCCC2)cc1 [glibenclamide, 5-Chloro-N-[2-[4-[[[(cyclohexylamino)carbonyl]amino]sulfonyl]phenyl]ethyl]-2-methoxybenzamide] | – | – | – | – | faster | not a strong influence | associated with two proteins having a molecular mass of approximately 47 and 65 kDa | indicated an interaction between glibenclamide and β-tubulin | 5 | one-fold increase
3 | COC(=O)Nc1nc2ccc(C(=O)c3cccs3)cc2[nH]1 [nocodazole] | did not affect | – | inhibit | nor did they induce visible changes | – | – | – | – | – | –
